{"source": "patent US5869456A", "about": "“Use of glutathione diesters” (priority 1995, dated 1999)", "key": {"[1]": {"tested_on": "Human Peripheral Blood Mononuclear Cells", "details": "6 ml whole blood + 3 ml 60 mM thiol, 30 min, 37° C.; PBM", "procedure": "(§1) T Cell and PBM Lysates: 120 μl 4 mM DTPA, total 360 μl sample/4.31% SSA (containing 0.5 mM DTPA), 100 μl Tris, 5μ mBBr; 20 min. in the dark, 15 μl glacial acetic acid.\n(§2) HPLC Analysis of Cellular Thiols. Samples were chromatographed on an Altex Ultrasphere ODS reverse phase column (5μ; 4.6 mm×25 cm), using one of three gradients: (1) Buffer A: 12.8% MeOH, 0.25% acetic acid, 87.75% H2 O, pH 3.9. (2) Buffer B: 90.0% MeOH, 0.25% acetic acid, 9.75% H2 O (no pH Adjustment). (3) Gradient 1: Initial, 100% A, linear gradient to 50% B at 25 min., linear gradient to 100% B at 35 min., wash with 100% B to 39.5 min.; step to 100% A at 40 min.; equilibration with 100% A to 48 min. Gradient 2: Initial, 100% A, linear gradient to 75% B at 25 min., remainder identical to Gradient 1. Gradient 3: Initial, 100% A, linear gradient to 65% A, 35% B at 25 minutes, remainder identical to gradient 1. Flow rates were 1 ml/min.\n6 mls. whole blood (see Table 1) was mixed with 3 ml of 60 mM GSH, GSH-ME or GSH-DE at pH 7. After 30 min incubation at 37° C., PBM were isolated by Ficoll-Hypaque density gradient centrifugation. Cells were washed with 14 ml PBS (2-3) and lysed with 4.31% SSA/0.5 mM DTPA (400 μl). After centrifugation, the supernatants were derivatized for HPLC analysis."}, "[2]": {"tested_on": "GSH diester α-esterase activity, guinea pig plasma"}, "[3]": {"tested_on": "GSH diester α-esterase activity, hamster plasma"}, "[4]": {"tested_on": "esterase activity, rat blood plasma"}, "hamsters": {"tested_on": "hamsters", "details": "given to hamsters, present studies"}, "mice [5]": {"tested_on": "mice", "details": "given to mice, present studies"}, "[6]": {"tested_on": "esterase activity, mouse blood plasma"}, "Human Erythrocytes [7]": {"tested_on": "Human Erythrocytes", "details": "for Thiol Levels, Total / Thiol Levels, thiol found GSH / Thiol Levels, thiol found GSH-DE / Thiol Levels, thiol found GSH-ME: erythrocyte suspension, 80 mM thiol added (one-third vol), 37° C.", "procedure": "Analysis of Erythrocyte Thiol by DTNB. Cell supernatant (40 μl) was added to 1 ml of 6 mM DTNB (in 143 mM phosphate buffer, pH 7.5, containing 6.3 mM EDTA). The change in absorbance at 412 nm after 1 min was converted to a value for total thiol using a GSH standard curve. The GSH standard were prepared in a 1:2:2 mixture of PBS: 0.435M acetic acid: 10% SSA (containing 2 mM EDTA) (\"RBC Mix\").\n(§3) Derivatization of Cell Thiols for HPLC Analysis. Derivatization mixtures are as follows: Erythrocyte Lysates: 155 μl 50 mM DTPA (pH 7), 110 μl 3.33% SSA, total 180 μl cell supernatant plus \"RBC Mix\", 10 μl 0.1M mBBr (in CH3 CN), 100 μl of 2M Tris·HCl (pH 9 at room temperature). The samples were placed in the dark for 20-30 minutes at room temperature; the reaction was quenched with 90 μl of glacial acetic acid. Reduced Erythocyte Lysates. 155 μl mM DTT in 50 mM DTPA (pH 7), SSA, sample, and \"RBC Mix\" as above Tris was added and the samples were agitated at room temperature for 25 min. 20 μl Tris and 10 μl mBBr were added; the derivatization proceeds as above.\nas §2\nWhole blood was collected with EDTA or DTPA (0.5M, pH 7) as anticoagulant (0.4 ml/8-12 ml blood). Plasma and buffy coat were removed after centrifugation and the erythrocytes washed 3 times with 1-2 vol PBS/5 mM DTPA or EDTA. Packed erythrocytes were suspended in one-half vol. PBS. To each suspension was one-third vol. GSH, GSH-ME or GSH-DE (80 mM, pH 7). After incubation at 37° C. for the indicated times, aliquots were removed, washed (3-4×) with PBS/EDTA/DTPA, lysed with one volume 0.435M acetic acid, protein-precipitated with one volume 10% SSA/2 mM DTPA, and centrifuged to remove cell debris. Supernatants were derivatized for HPLC analysis as described in Materials and Methods."}, "Human Erythrocytes [8]": {"tested_on": "Human Erythrocytes", "details": "whole blood + one-half volume 120 mM thiol, 30 minutes, 37° C.", "procedure": "as §3, §2\nWhole blood (see Table 1) was mixed with one-half volume of 120 mM GSH, GSH-ME, or GSH-DE at pH 7. The samples were incubated for 30 minutes at 37° C. and then centrifuged. After removal of plasma and buffy coat, the erythrocytes were washed and processed as described in Table 1."}, "[9]": {"tested_on": "GSH diester α-esterase activity, rabbit plasma"}, "[10]": {"tested_on": "GSH diester α-esterase activity, human blood plasma"}, "[11]": {"tested_on": "Hamsters (liver, kidney, blood plasma)", "test": "Thiol levels in hamsters treated with GSH esters", "type": "in vivo, Syrian hamster", "description": "Plasma Samples: 190 μl 50 mM DTPA, total 70 μ1 sample plus 3.33% SSA, 17.5 μl Tris, 10 μl of mBBr; after 20 min in the dark, 7.5 μl glacial acetic acid. Reduced Plasma Samples: 170μ 50 mM DTPA, 20 μl 16 mM DTT in 50 mM DTPA, remainder as above; the samples were agitated at room temperature for 20 min. After reduction, mBBr was added and the derivatization proceeds as above.\nOther Animal Tissues. 385 μl 50 mM DTPA, 140 μl sample. 20 μl mBBr, 40 μl Tris; 20 minutes in the dark, 15 μl glacial acetic acid. Standards for all sample types were prepared using identical derivatization procedures.\nRecovery of Tissues from Syrian Hamsters. Animals were anesthetized by i.p. administration of xylazine and ketamine, decapitated, and exsanguinated. Blood was mixed with 50 μl EDTA (0.5M, pH 7). Plasma was recovered by centrifugation; one-half vol. 10% SSA/0.5 mM DTPA was added. Liver: one lobe was removed, rinsed with H2 O, blotted, weighed, and homogenized in 5% SSA (0.5 Mm DTPA) (5 vol/g tissue). Kidney: one kidney was removed and decapsulated and then processed as with liver.\nBSO (6 mmol/kg) was given I.P. fasted animals 2 hours prior to giving GSH, GSH-ME, or GSH-DE (5 mmol/kg); values were determined 1 hour later. […] Each value represents determinations ±S.D. on 3-4 animals."}, "[12]": {"tested_on": "GSH diester α-esterase activity, sheep plasma"}, "[13]": {"tested_on": "Human Peripheral Blood Mononuclear Cells", "details": "for Thiol Levels, Total / Thiol Levels, thiol found GSH / Thiol Levels, thiol found GSH-DE / Thiol Levels, thiol found GSH-ME: isolated PBM, 0.3 ml 80 mM thiol to 0.9 ml cells, 37° C.", "procedure": "as §1, §2\nPBM were isolated from whole blood (see Tables 1 and 3) washed with PBS, and re-suspended in PBS. To 0.9 ml cell suspension (5-8×10^6 cells) was added 0.3 ml of 80 mM GSH, GSH-ME or GSH-DE at pH 7. After incubation at 37° C. for the indicated times, the cells were recovered by centrifugation, washed with 14 ml PBS (2×), and lysed by addition of 4.31% of SSA/0.5 mM DTPA and 2-3 freeze-thaw cycles. After centrifugation, supernatants were derivatized for HPLC analysis."}, "mice [14]": {"tested_on": "mice", "details": "earlier evidence / earlier patents; cited from earlier work"}}, "note": "Like-named read-outs stand apart in the source and are kept apart here."}
{"compound": "CCOC(=O)CNC(=O)[C@H](CS)NC(=O)CC[C@H](N)C(=O)OCC", "note": "[GSH-DE, glutathione diethyl ester]", "values": [{"measurement": "Thiol Levels Found, GSH", "setting": "[1]", "result": 4.24, "unit": "nmol/10^6 cells"}, {"measurement": "Thiol Levels Found, GSH-DE", "setting": "[1]", "result": 0.501, "unit": "nmol/10^6 cells"}, {"measurement": "Thiol Levels Found, GSH-ME", "setting": "[1]", "result": 10.5, "unit": "nmol/10^6 cells"}, {"measurement": "Thiol Levels Found, Total", "setting": "[1]", "result": 15.2, "unit": "nmol/10^6 cells"}, {"measurement": "GSH diester α-esterase activity in plasma", "setting": "[2]", "result": "also lack this esterase"}, {"measurement": "splitting of GSH-DE to GSH-ME in plasma (GSH diester α-esterase activity)", "setting": "[3]", "result": "not split to GSH-ME in plasma"}, {"measurement": "splitting of GSH-DE to GSH-ME in plasma (GSH diester α-esterase activity)", "setting": "[3]; listed as GSH diethyl ester", "result": "lacks detectable GSH diester α-esterase activity"}, {"measurement": "conversion of GSH diethyl ester to GSH mono (glycyl) ester in blood plasma", "setting": "[4]", "result": "split rapidly to GSH-ME"}, {"measurement": "conversion of GSH diethyl ester to GSH mono (glycyl) ester in blood plasma", "setting": "[4]; listed as GSH diethyl ester", "result": "rapidly converted to GSH mono (glycyl) ester"}, {"measurement": "toxicity", "setting": "hamsters", "result": "toxicity was not observed"}, {"measurement": "toxicity", "setting": "mice [5]", "result": "toxicity was not observed"}, {"measurement": "conversion of GSH diethyl ester to GSH mono (glycyl) ester in blood plasma", "setting": "[6]", "result": "split rapidly to GSH-ME"}, {"measurement": "conversion of GSH diethyl ester to GSH mono (glycyl) ester in blood plasma", "setting": "[6]; listed as GSH diethyl ester", "result": "rapidly converted to GSH mono (glycyl) ester"}, {"measurement": "Thiol Levels, Total", "setting": "Human Erythrocytes [7]; 7 min", "result": "9.99 ± 2.10", "unit": "mM"}, {"measurement": "Thiol Levels, thiol found GSH", "setting": "Human Erythrocytes [7]; 7 min", "result": "1.74 ± 0.22", "unit": "mM"}, {"measurement": "Thiol Levels, thiol found GSH-DE", "setting": "Human Erythrocytes [7]; 7 min", "result": "4.19 ± 1.47", "unit": "mM"}, {"measurement": "Thiol Levels, thiol found GSH-ME", "setting": "Human Erythrocytes [7]; 7 min", "result": "4.01 ± 0.41", "unit": "mM"}, {"measurement": "Thiol Levels, Total", "setting": "Human Erythrocytes [7]; 45 min", "result": "14.5 ± 2.0", "unit": "mM"}, {"measurement": "Thiol Levels, thiol found GSH", "setting": "Human Erythrocytes [7]; 45 min", "result": "1.77 ± 0.22", "unit": "mM"}, {"measurement": "Thiol Levels, thiol found GSH-DE", "setting": "Human Erythrocytes [7]; 45 min", "result": "3.61 ± 1.29", "unit": "mM"}, {"measurement": "Thiol Levels, thiol found GSH-ME", "setting": "Human Erythrocytes [7]; 45 min", "result": "9.15 ± 0.49", "unit": "mM"}, {"measurement": "Thiol Levels, Total", "setting": "Human Erythrocytes [7]; 90 min", "result": "20.1 ± 2.8", "unit": "mM"}, {"measurement": "Thiol Levels, thiol found GSH", "setting": "Human Erythrocytes [7]; 90 min", "result": "2.02 ± 0.30", "unit": "mM"}, {"measurement": "Thiol Levels, thiol found GSH-DE", "setting": "Human Erythrocytes [7]; 90 min", "result": "3.51 ± 1.28", "unit": "mM"}, {"measurement": "Thiol Levels, thiol found GSH-ME", "setting": "Human Erythrocytes [7]; 90 min", "result": "14.6 ± 1.2", "unit": "mM"}, {"measurement": "total RBC thiol levels", "setting": "Human Erythrocytes [7]; summary of Table 1", "result": "about 20 mM"}, {"measurement": "Thiol Levels Found, GSH", "setting": "Human Erythrocytes [8]", "result": "2.24 ± 0.45", "unit": "mM"}, {"measurement": "Thiol Levels Found, GSH-DE", "setting": "Human Erythrocytes [8]", "result": "8.61 ± 0.31", "unit": "mM"}, {"measurement": "Thiol Levels Found, GSH-ME", "setting": "Human Erythrocytes [8]", "result": "6.26 ± 0.50", "unit": "mM"}, {"measurement": "Thiol Levels Found, Total", "setting": "Human Erythrocytes [8]", "result": "17.1 ± 1.24", "unit": "mM"}, {"measurement": "GSH diester α-esterase activity in plasma", "setting": "[9]", "result": "also lack this esterase"}, {"measurement": "splitting of GSH-DE to GSH-ME in plasma (GSH diester α-esterase activity)", "setting": "[10]", "result": "not split to GSH-ME in plasma"}, {"measurement": "splitting of GSH-DE to GSH-ME in plasma (GSH diester α-esterase activity)", "setting": "[10]; listed as GSH diethyl ester", "result": "does not have detectable GSH diester α-esterase activity"}, {"measurement": "raising GSH levels in liver", "setting": "[11]; hamster, comparison in words (Table 6)", "result": "more effective than GSH-ME"}, {"measurement": "Blood plasma levels of GSH", "setting": "[11]; hamsters, 5 mmol/kg after BSO, 1 hour later", "result": "not affected"}, {"measurement": "GSH diester α-esterase activity in plasma", "setting": "[12]", "result": "also lack this esterase"}, {"measurement": "total thiols in human PBM", "setting": "[13]; in 90 min, text summary of Table 4", "result": 33, "unit": "mM"}, {"measurement": "Thiol Levels, Total", "setting": "[13]; 7 min, donor A", "result": "12.1 ± 1.3", "unit": "nmol/10^6 cells"}, {"measurement": "Thiol Levels, thiol found GSH", "setting": "[13]; 7 min, donor A", "result": "3.64 ± 0.32", "unit": "nmol/10^6 cells"}, {"measurement": "Thiol Levels, thiol found GSH-DE", "setting": "[13]; 7 min, donor A", "result": "0.65 ± 0.016", "unit": "nmol/10^6 cells"}, {"measurement": "Thiol Levels, thiol found GSH-ME", "setting": "[13]; 7 min, donor A", "result": "8.34 ± 0.95", "unit": "nmol/10^6 cells"}, {"measurement": "Thiol Levels, Total", "setting": "[13]; 45 min, donor B", "result": "17.2 ± 1.4", "unit": "nmol/10^6 cells"}, {"measurement": "Thiol Levels, thiol found GSH", "setting": "[13]; 45 min, donor B", "result": "2.82 ± 0.25", "unit": "nmol/10^6 cells"}, {"measurement": "Thiol Levels, thiol found GSH-DE", "setting": "[13]; 45 min, donor B", "result": "0.320 ± 0.101", "unit": "nmol/10^6 cells"}, {"measurement": "Thiol Levels, thiol found GSH-ME", "setting": "[13]; 45 min, donor B", "result": "14.1 ± 1.0", "unit": "nmol/10^6 cells"}, {"measurement": "Thiol Levels, Total", "setting": "[13]; 90 min, donor A", "result": "33.2 ± 6.3", "unit": "nmol/10^6 cells"}, {"measurement": "Thiol Levels, thiol found GSH", "setting": "[13]; 90 min, donor A", "result": "5.58 ± 1.05", "unit": "nmol/10^6 cells"}, {"measurement": "Thiol Levels, thiol found GSH-DE", "setting": "[13]; 90 min, donor A", "result": "0.750 ± 0.141", "unit": "nmol/10^6 cells"}, {"measurement": "Thiol Levels, thiol found GSH-ME", "setting": "[13]; 90 min, donor A", "result": "26.9 ± 5.1", "unit": "nmol/10^6 cells"}]}
{"compound": "COC(=O)CNC(=O)C(CS)NC(=O)CCC(N)C(=O)OC", "note": "(centres unmarked) [GSH dimethyl ester]", "values": [{"measurement": "toxicity", "setting": "mice [14]", "result": "may be toxic"}]}
